Here are results for eleven compounds from US10112899B2 (ViiV HEALTHCARE UK LIMITED, priority 2014, dated 2018).

Molecules are shown by their SMILES.

For the test, the system named is HIV in the HTLV-1 transformed cell line MT-4. The experiment in a line: organism not typed. The settings on record: MT-4 cells, luciferase/cell titer glo readout after 96 hours, 10 point dose response. In kind it is cell-based.

With `Cc1ccc(-c2c(C)c3c(c(C)c2[C@H](OC(C)(C)C)C(=O)O)CN(C(=O)CN2CCCCC2)C3)cc1` [Example 106, (S)-2-(tert-butoxy)-2-(4,7-dimethyl-2-(2-(piperidin-1-yl)acetyl)-6-(p-tolyl)isoindolin-5-yl)acetic acid], the concentration for half-maximal inhibition (IC50) (MT4, 96 h) was determined as 143 nM.

With `Cc1ccc(-c2c(C)c3c(c(C)c2[C@H](OC(C)(C)C)C(=O)O)CN(C(=O)c2cc(F)c(F)c(Cl)c2)C3)cc1` [Example 280, (S)-2-(tert-butoxy)-2-(2-(3-chloro-4,5-difluorobenzoyl)-4,7-dimethyl-6-(p-tolyl)isoindolin-5-yl)acetic acid], where the note is “MT4, 96 h”, the IC50 was found to be 8 nM.

On to `Cc1ccc(-c2c(C)c3c(c(C)c2[C@H](OC(C)(C)C)C(=O)O)CN(C(=O)c2nccn2C)C3)cc1` [Example 239, (S)-2-(tert-butoxy)-2-(4,7-dimethyl-2-(1-methyl-1H-imidazole-2-carbonyl)-6-(p-tolyl)isoindolin-5-yl)acetic acid], for which it took 16 nM to reach half-maximal inhibition (IC50).

Where the note is “MT4, 96 h”, `Cc1c(-c2c(C)c3c(c(C)c2[C@H](OC(C)(C)C)C(=O)O)CN(C(=O)c2ccc(F)c(F)c2)C3)cc(F)c2c1CCCO2` (atropisomer, axis not shown; (M)) [Example 186, (S)-2-(tert-butoxy)-2-((M)-2-(3,4-difluorobenzoyl)-6-(8-fluoro-5-methylchroman-6-yl)-4,7-dimethylisoindolin-5-yl)acetic acid] yielded an IC50 of 2 nM.

Compound `Cc1c2c(c(C)c([C@H](OC(C)(C)C)C(=O)O)c1-c1ccc(Cl)cc1)CN(C(=O)CC(C)(C)C)C2` [Example 135, (S)-2-(tert-butoxy)-2-(6-(4-chlorophenyl)-2-(3,3-dimethylbutanol)-4,7-dimethylisoindolin-5-yl)acetic acid] yielded an IC50 (MT4, 96 h) of 23 nM.

Take `COc1cccc(C(=O)N2Cc3c(C)c(-c4ccc(C)cc4)c([C@H](OC(C)(C)C)C(=O)O)c(C)c3C2)c1` [Example 114, (S)-2-(tert-butoxy)-2-(2-(3-methoxybenzoyl)-4,7-dimethyl-6-(p-tolyl)isoindolin-5-yl)acetic acid]: the IC50 (MT4, 96 h) was found to be 5 nM.

`Cc1ccc(-c2c(C)c3c(c(C)c2[C@H](OC(C)(C)C)C(=O)O)CN(C(=O)c2cc(C)c(F)c(F)c2)C3)cc1` [Example 278, (S)-2-(tert-butoxy)-2-(2-(3,4-difluoro-5-methylbenzoyl)-4,7-dimethyl-6-(p-tolyl)isoindolin-5-yl)acetic acid]: it took 5 nM to reach half-maximal inhibition (MT4, 96 h) (IC50).

In turn, `Cc1ccc(-c2c(C)c3c(c(C)c2[C@H](OC(C)(C)C)C(=O)O)CN(CC(C)C)C3)cc1` [Example 25, (S)-2-(tert-butoxy)-2-(2-isobutyl-4,7-dimethyl-6-(p-tolyl)isoindolin-5-yl)acetic acid] registered an IC50 (MT4, 96 h) of 946 nM.

For the setting “MT4, 96 h”, `Cc1ccc(-c2c(C)c3c(c(C)c2[C@H](OC(C)(C)C)C(=O)O)CN(C(=O)NCC(C)(C)C)C3)cc1` [Example 74, (2S)-2-(tert-butoxy)-2-{2-[(2,2-dimethylpropyl)carbamoyl]-4,7-dimethyl-6-(4-methylphenyl)-2,3-dihydro-1H-isoindol-5-yl}acetic acid] had an IC50 of 21 nM.

Compound `Cc1c(-c2c(C)c3c(c(C)c2[C@H](OC(C)(C)C)C(=O)O)CN(C(=O)c2ccccc2)C3)cc(F)c2c1CCCO2` (atropisomer, axis not shown; (M)) [Example 158, (S)-2-(2-benzoyl-6-((M)-8-fluoro-5-methylchroman-6-yl)-4,7-dimethylisoindolin-5-yl)-2-(tert-butoxy)acetic acid] returned an IC50 (MT4, 96 h) of 2 nM.

Compound `Cc1c(-c2c(C)c3c(c(C)c2[C@H](OC(C)(C)C)C(=O)O)CN(C(=O)N2CCC(F)(F)C2)C3)cc(F)c2c1NCCO2` [Example 315, (2S)-2-(tert-butoxy)-2-(2-(3,3-difluoropyrrolidine-1-carbonyl)-6-(8-fluoro-5-methyl-3,4-dihydro-2H-benzo[b][1,4]oxazin-6-yl)-4,7-dimethylisoindolin-5-yl) acetic acid] displayed an IC50 (MT4, 96 h) of 15 nM.
